Measurements as given in patent US8309685B2 (Celgene Avilomics Research, Inc., priority 2007, dated 2012).

Assays:
Assay type in all cases: biochemical
[1] = biological target: T1, wild type HCV NS3/4A 1b protease enzyme (Hepatitis C virus genotype 1b, UniProt P26663); experiment: biochemical
T1 construct: 10× stocks of NS3/4A protease enzyme from Bioenza (Mountain View, Calif.); purchased Bioenza (Mountain View, Calif.)
Protocol: (§1) HCV Protease FRET Assay for Wild Type and Mutated NS3/4A 1b Enzymes (IC50)
(§2) Protease reactions were started with the addition of 45 μL of the FRET substrate and monitored for 120 minutes at λex487/λem514 through Quad^4 monochromoters in a Synergy^4 plate reader from BioTek (Winooski, Vt.). At the conclusion of each assay, progress curves from each well were examined for linear reaction kinetics and fit statistics (R^2, absolute sum of squares).
(§3) The compound numbers correspond to the compound numbers in Table 3.

[2] = biological target: T2, D168A mutant of the HCV NS3/4A 1b protease enzyme (Hepatitis C virus genotype 1b, UniProt P26663, D1194A); experiment: HCV Protease FRET Assay (IC50), D168A mutant
T2 construct: 10× stocks of NS3/4A protease enzyme from Bioenza (Mountain View, Calif.); purchased Bioenza (Mountain View, Calif.)
Protocol: as §1, §2, §3

[3] = biological target: T1, wild type HCV NS3/4A 1b protease enzyme; experiment: HCV Protease FRET Assay (IC50_APP), wild type
[4] = biological target: T2, D168A mutant of the HCV NS3/4A 1b protease enzyme; experiment: HCV Protease FRET Assay (IC50_APP), D168A mutant; details: apparent IC50, D168A mutant; read-out: IC50_APP, HCV D168A
[5] = biological target: T3, R155K mutant of the HCV NS3/4A 1b protease enzyme (Hepatitis C virus genotype 1b, UniProt P26663, R1181K); experiment: HCV Protease FRET Assay (IC50_APP), R155K mutant; details: apparent IC50, R155K mutant; read-out: IC50_APP, HCV R155K
T3 construct: 10× stocks of NS3/4A protease enzyme from Bioenza (Mountain View, Calif.); purchased Bioenza (Mountain View, Calif.)
Protocol: HCV Protease FRET Assay for WT and Mutated NS3/4A 1b Enzymes (IC50—APP).
The following protocol was used to generate “apparent” IC50 (IC50—APP) values as depicted in Table 6, below. […] 5 μL of each enzyme were added to Corning (#3575) 384-well, black, microtiter plates (Corning, N.Y.) after spotting a 0.5 μL volume of 50% DMSO and serially diluted compounds prepared in 50% DMSO. Protease reactions were immediately started after enzyme addition with the addition of 45 μL of the FRET substrate and monitored for 60-90 minutes at λex485/λem520 in a Synergy^4 plate reader from BioTek (Winooski, Vt.). At the conclusion of each assay, progress curves from each well were examined for linear reaction kinetics and fit statistics (R^2, 95% confidence intervals, absolute sum of squares).
The compound numbers correspond to the compound numbers in Table 3. […] ;

[6] = read-out: Inhibition, WT, WT enzyme, FRET assay
[7] = read-out: Inhibition, HCV D168A, D168A enzyme, FRET assay
[8] = read-out: IC50_APP, WT, apparent IC50, wild type NS3/4A 1b

Row | Structure (SMILES) | IC50 [1, 6] | IC50 [2, 7] | IC50 [4] | IC50 [5] | IC50 [3, 8] | other results
1 | C=C[C@@H]1C[C@]1(NC(=O)[C@@H]1C[C@@H](Oc2cc(-c3ccccc3)nc3cc(OC)ccc23)CN1C(=O)[C@H](CNC(=O)[C@H](C)Cl)NC(=O)OC(C)(C)C)C(=O)NS(=O)(=O)c1ccccc1 [Compound I-21, tert-butyl(S)-3-((S)-2-chloropropanamido)-1-((2S,4R)-4-(7-methoxy-2-phenylquinolin-4-yloxy)-2-((1R,2S)-1-(phenylsulfonylcarbamoyl)-2-vinylcyclopropylcarbamoyl)pyrrolidin-1-yl)-1-oxopropan-2-ylcarbamate] | < 10 nM | 100 to 1000 nM |  |  |  | 
2 | C=C[C@@H]1C[C@]1(NC(=O)[C@@H]1C[C@@H](Oc2cc(-c3ccccc3)nc3cc(OC)ccc23)CN1C(=O)C1(NC(=O)OC(C)(C)C)CCNCC1)C(=O)NS(=O)(=O)c1ccccc1 [Compound I-24, tert-butyl-4-((2S,4R)-4-(7-methoxy-2-phenylquinolin-4-yloxy)-2-((1R,2S)-1-(phenylsulfonylcarbamoyl)-2-vinylcyclopropylcarbamoyl)pyrrolidine-1-carbonyl)piperidin-4-ylcarbamate] | 100 to 1000 nM | 1000 to 10000 nM |  |  |  | 
3 | C=CC(=O)NC[C@H](NC(=O)CCCCCNC(=O)CCCC[C@@H]1SC[C@@H]2NC(=O)N[C@@H]21)C(=O)N1C[C@H](Oc2cc(-c3ccccc3)nc3cc(OC)ccc23)C[C@H]1C(=O)N[C@]1(C(=O)NS(=O)(=O)c2ccccc2)C[C@H]1C=C [Compound I-31, (2S,4R)-1-((S)-3-acrylamido-2-(6-(5-((3aS,4S,6aR)-2-oxohexahydro-1H-thieno[3,4-d]imidazol-4-yl)pentanamido)hexanamido)propanoyl)-4-(7-methoxy-2-phenylquinolin-4-yloxy)-N-((1R,2S)-1-(phenylsulfonylcarbamoyl)-2-vinylcyclopropyl)pyrrolidine-2-carboxamide] | < 10 nM | 10 to 100 nM |  |  |  | 
4 | C=CC(=O)N[C@@H](C)C(=O)N1C[C@H](Oc2cc(-c3ccccc3)nc3cc(OC)ccc23)C[C@H]1C(=O)N[C@]1(C(=O)NS(=O)(=O)c2ccccc2)C[C@H]1C=C [Compound I-34, (2S,4R)-1-((S)-2-acrylamidopropanoyl)-4-(7-methoxy-2-phenylquinolin-4-yloxy)-N-((1R,2S)-1-(phenylsulfonylcarbamoyl)-2-vinylcyclopropyl)pyrrolidine-2-carboxamide] | 10 to 100 nM | 1000 to 10000 nM |  |  |  | 
5 | C=CC(=O)N(C)CC(=O)N1C[C@H](Oc2cc(-c3ccccc3)nc3cc(OC)ccc23)C[C@H]1C(=O)N[C@]1(C(=O)NS(=O)(=O)C2CC2)C[C@H]1C=C [Compound I-37, (2S,4R)—N-((1R,2S)-1-(cyclopropylsulfonylcarbamoyl)-2-vinylcyclopropyl)-4-(7-methoxy-2-phenylquinolin-4-yloxy)-1-(2-(N-methylacrylamido)acetyl)pyrrolidine-2-carboxamide] | 10 to 100 nM | 1000 to 10000 nM |  |  |  | 
6 | C=C[C@@H]1C[C@]1(NC(=O)[C@@H]1C[C@@H](Oc2cc(-c3ccccc3)nc3cc(OC)ccc23)CN1C(=O)CNC(=O)OC(C)(C)C)C(=O)NS(=O)(=O)C1CC1 [Compound I-38, tert-butyl-2-((2S,4R)-2-((1R,2S)-1-(cyclopropylsulfonylcarbamoyl)-2-vinylcyclopropylcarbamoyl)-4-(7-methoxy-2-phenylquinolin-4-yloxy)pyrrolidin-1-yl)-2-oxoethylcarbamate] | < 10 nM | 100 to 1000 nM |  |  |  | 
7 | C=CC(=O)OC(C)(C)[C@H](NC(=O)OC(C)(C)C)C(=O)N1CC(Oc2cc(-c3ccccc3)nc3cc(OC)ccc23)C[C@H]1C(=O)N[C@]1(C(=O)NS(=O)(=O)C2CC2)C[C@H]1C=C (stereo partly shown) [Compound I-40] | 10 to 100 nM | < 10 nM |  |  |  | 
8 | C=C[C@@H]1C[C@]1(NC(=O)[C@@H]1C[C@@H](Oc2cc(-c3ccccc3)nc3cc(OC)ccc23)CN1C(=O)CNC(=O)C#CC)C(=O)NS(=O)(=O)c1ccccc1 [Compound I-43, (2S,4R)-1-(2-but-2-ynamidoacetyl)-4-(7-methoxy-2-phenylquinolin-4-yloxy)-N-((1R,2S)-1-(phenylsulfonylcarbamoyl)-2-vinylcyclopropyl)pyrrolidine-2-carboxamide] | 100 to 1000 nM | 1000 to 10000 nM |  |  |  | 
9 | C=C[C@@H]1C[C@]1(NC(=O)[C@@H]1C[C@@H](Oc2cc(-c3ccccc3)nc3cc(OC)ccc23)CN1C(=O)CNC(=O)C(=C)C)C(=O)NS(=O)(=O)c1ccccc1 [Compound I-44, (2S,4R)-1-(2-methacrylamidoacetyl)-4-(7-methoxy-2-phenylquinolin-4-yloxy)-N-((1R,2S)-1-(phenylsulfonylcarbamoyl)-2-vinylcyclopropyl)pyrrolidine-2-carboxamide] | 10 to 100 nM | 1000 to 10000 nM |  |  |  | 
10 | C=CC(=O)N1C[C@H](Oc2cc(-c3ccccc3)nc3cc(OC)ccc23)C[C@H]1C(=O)N[C@]1(C(=O)NS(=O)(=O)C2CC2)C[C@H]1C=C [Compound I-49, (2S,4R)-1-acryloyl-N-((1R,2S)-1-(cyclopropylsulfonylcarbamoyl)-2-vinylcyclopropyl)-4-(7-methoxy-2-phenylquinolin-4-yloxy)pyrrolidine-2-carboxamide] | 10 to 100 nM | 100 to 1000 nM |  |  |  | 
11 | C=CC(=O)N(C)C[C@@H]1NC(=O)OCCC/C=C/c2ccc3ccnc(c3c2)O[C@@H]2C[C@@H](C(=O)N[C@]3(C(=O)NS(=O)(=O)C4CC4)C[C@H]3C=C)N(C2)C1=O [Compound I-83] |  |  | 1000 to 10000 nM | 1000 to 10000 nM |  | IC50 [3]: 10 to 100 nM
12 | C=CC(=O)NC[C@H](NC(=O)CCCC[C@H]1SC[C@H]2NC(=O)N[C@H]21)C(=O)N1C[C@H](Oc2nccc3cc(OC)ccc23)C[C@H]1C(=O)N[C@]1(C(=O)NS(=O)(=O)C2CC2)C[C@H]1C=C [Compound I-103, 1-{3-Acryloylamino-2-[5-(2-oxo-hexahydro-thieno[3,4-d]imidazol-6-yl)-pentanoylamino]-propionyl}-4-(6-methoxy-isoquinolin-1-yloxy)-pyrrolidine-2-carboxylic acid (1-cyclopropanesulfonylaminocarbonyl-2-vinyl-cyclopropyl)-amide] |  |  | 10 to 100 nM | 100 to 1000 nM | 10 to 100 nM | 
13 | C=CC(=O)NC[C@H](NC(=O)CCCC(=O)NCCCOCCOCCOCCCNC(=O)CCCC[C@@H]1SC[C@@H]2NC(=O)N[C@@H]21)C(=O)N1C[C@H](Oc2nccc3cc(OC)ccc23)C[C@H]1C(=O)N[C@]1(C(=O)NS(=O)(=O)C2CC2)C[C@H]1C=C [Compound I-104] |  |  | 10 to 100 nM | 10 to 100 nM | < 10 nM | 
14 | C=C[C@@H]1C[C@]1(NC(=O)[C@@H]1C[C@@H](Oc2nccc3cc(OC)ccc23)CN1C(=O)[C@H](CC(=O)/C(C)=C/C)NC(=O)OC(C)(C)C)C(=O)NS(=O)(=O)C1CC1 [Compound I-133] |  |  | 100 to 1000 nM | 10 to 100 nM | < 10 nM | 
15 | C=C[C@@H]1C[C@]1(NC(=O)[C@@H]1C[C@@H](Oc2nccc3cc(OC)ccc23)CN1C(=O)[C@@H](NC(=O)OC(C)(C)C)C(C)(C)C(=O)C=C(C)C)C(=O)NS(=O)(=O)C1CC1 [Compound I-134] |  |  | 100 to 1000 nM | 10 to 100 nM | < 10 nM | 
16 | C=C[C@@H]1C[C@]1(NC(=O)[C@@H]1C[C@@H](Oc2nccc3cc(OC)ccc23)CN1C(=O)[C@H](CCC(=O)/C=C/c1ccccc1)NC(=O)OC(C)(C)C)C(=O)NS(=O)(=O)C1CC1 [Compound I-137] |  |  | 1000 to 10000 nM | 1000 to 10000 nM | 10 to 100 nM | 
17 | [2H]C([2H])([2H])C(=CC(=O)CC[C@H](NC(=O)OC(C)(C)C)C(=O)N1C[C@H](Oc2nccc3cc(OC)ccc23)C[C@H]1C(=O)N[C@]1(C(=O)NS(=O)(=O)C2CC2)C[C@H]1C=C)C([2H])([2H])[2H] [Compound I-142] |  |  | 100 to 1000 nM | 10 to 100 nM | < 10 nM | 
18 | C=C[C@@H]1C[C@]1(NC(=O)[C@@H]1C[C@@H](Oc2nccc3cc(OC)ccc23)CN1C(=O)[C@H](CCC(=O)/C=C/C(C)(C)C)NC(=O)OC(C)(C)C)C(=O)NS(=O)(=O)C1CC1 [Compound I-143] |  |  | 1000 to 10000 nM | 100 to 1000 nM | < 10 nM | 
19 | C=C[C@@H]1C[C@]1(NC(=O)[C@@H]1C[C@@H](Oc2cc(-c3ccccc3)nc3cc(OC)ccc23)CN1C(=O)CNC(=O)CC)C(=O)NS(=O)(=O)c1ccccc1 [I^R-27, (2S,4R)-4-(7-methoxy-2-phenylquinolin-4-yloxy)-N-((1R,2S)-1-(phenylsulfonylcarbamoyl)-2-vinylcyclopropyl)-1-(2-propionamidoacetyl)pyrrolidine-2-carboxamide] |  |  |  |  |  | IC50 [1]: 100 to 1000 nM; IC50 [2]: 1000 to 10000 nM
